Results taken from patent US10913932B2, “Maturation of mammalian hepatocytes” (Takara Bio Europe AB, priority 2015, dated 2021).

Experiments:
OATP1B1 = OATP1B1 mRNA expression levels; format: cell-based, human; conditions: protocol B plus compound compared to protocol A; day 36; protocol B alone also increases; FIG. 2 F
Protocol: Following the basic protocol B, ChiPSC4-derived hepatocytes cultured on a Collagen I-Fibronectin-based coating were treated with 0.5 μM 10Z-Heptadecenoic acid, 0.5 μM Arachidonic acid, 0.5 μM Calcitriol, 5 μM CGP 52608, 0.2 μM Cholecalciferol, 5 μM PP1, 0.5 μM D-erythro-Sphingosine, 0.2 μM 13 cis-RA, 0.5 μM L-erythro MAPP, 0.5 μM PAF C16, 0.5 μM C16 Ceramide, or different combinations of these compounds from day 21 of the differentiation protocol and onwards (FIG. 2).

[1] = system: ChiPSC4-derived hepatocytes; assay: CYP activity assay, Example 4, basic protocol B; conditions: single compounds 0.2-5 μM or combinations, from day 21 onwards, Collagen I-Fibronectin-based coating, day 29, FIG. 2 A-D
Protocol: (§1) On day 29 and 36 of the differentiation protocol, the cell cultures are subjected to a CYP activity assay according to the following protocol: Cells are washed twice with warm Williams's medium E w/o phenol red (+0.1% PEST). Then CYP activity assay, consisting of warm Williams medium E w/o phenol red (+0.1% PEST), 2 mM L-Glutamine, 25 mM HEPES, 10 μM Phenacetin (model substrate for CYP1A), 10 μM Bupropion (model substrate for 2B6), 10 μM Diclofenac (model substrate for CYP2C9), 10 μM Bufuralol (model substrate for 2D6), and 5 μM Midazolam (model substrate for CYP3A), is added to the cells (e.g. 110 μl/cm^2) and incubated for 16 hr at 37° C. Then 100 μl of the supernatant is transferred into a 96 well plate which is sealed with a tight seal tape and stored at −80° C. until LC/MS-analysis of metabolite formation: Acetaminophen (Paracetamol) for CYP1A, OH-Bupropion for CYP2B6, OH-Diclofenac for CYP2C9, OH-Bufuralol for CYP2D6, and OH-Midazolam for CYP3A. […]
On day 29 of the differentiation protocol, the cell cultures are subjected to a CYP activity assay according to the protocol described in Example 3. In some experiments, 50 μM Mephenytoin (model substrate for 2C19) was included additionally to the substrates mentioned above and then the formation of the metabolite OH-Mephenytoin was measured by LC/MS in order to determine CYP2C19 activity.

[2] = system: hiPS cell-derived hepatocytes; assay: CYP activity assay (LC/MS metabolite formation), Example 3, basic protocol A; conditions: single compounds, 0.2-50 μM, from day 21 onwards, Fibronectin-based coating, day 29 and 36, FIG. 1
Protocol: Following the basic protocol A, hiPS cell derived hepatocytes cultured on a Fibronectin-based coating were treated with 0.5 or 5 μM 10Z-Heptadecenoic acid, 0.5 or 5 μM Arachidonic acid, 5 μM Calcifediol, 5 μM Calcitriol, 0.2 or 0.5 μM Cholecalciferol, 5 or 50 μM CGP 52608, 0.5 or 5 μM Docosahexaenoic acid, 0.5, 1.25, 2.5, 5, or 10 μM PP1, 0.5 or 5 μM PP2, 0.5 or 5 μM D-erythro-Sphingosine, or 0.5 or 5 μM Tetradecanoic acid from day 21 of the differentiation protocol and onwards (FIG. 1).
as §1, with “C.” for “C. Then 100 μl of the supernatant is transferred into a 96 well plate which is sealed with a tight seal tape and stored at −80° C. until LC/MS-analysis of metabolite formation: Acetaminophen (Paracetamol) for CYP1A, OH-Bupropion for CYP2B6, OH-Diclofenac for CYP2C9, OH-Bufuralol for CYP2D6, and OH-Midazolam for CYP3A.”

CCCCCC/C=C\CCCCCCCCC(=O)O [10Z-Heptadecenoic acid, 10Z-heptadecenoic acid]
OATP1B1 mRNA levels (OATP1B1): increase

CC1=C(/C=C/C(C)=C/C=C/C(C)=C\C(=O)O)C(C)(C)CCC1 [13 cis-RA, 13-cis-retinoic acid]
CYP activity levels [1]: increase CYP activity levels

C=C1CC[C@H](O)C/C1=C/C=C1\CCC[C@]2(C)[C@@H]([C@H](C)CCCC(C)C)CC[C@@H]12 [Cholecalciferol, cholecalciferol]
CYP activity levels [2]: increase CYP activity levels
CYP activity levels [1]: increase CYP activity levels

CC(C)(C)n1nc(-c2ccc(Cl)cc2)c2c(N)ncnc21 [PP2, 3-(4-chlorophenyl) 1-(1,1-dimethylethyl)-1H-pyrazolo[3,4-d]pyrimidin-4-amine]
CYP activity levels [2]: increase CYP activity levels
